According to ChEMBL document CHEMBL5303573, “Mapping human microbiome drug metabolism by gut bacteria and their genes” (Nature, 2019):

Legend:
[1] = The drug is tested on Collinsella aerofaciens strain: ATCC25986 for biotransformation. The drug concentrations were measured before and after a 12-h incubation by liquid-chromatography-coupled mass spectrometry (LC–MS); conditions: 2 µM
[2] = The drug is tested on Parabacteroides merdae strain: ATCC43184 for biotransformation. The drug concentrations were measured before and after a 12-h incubation by liquid-chromatography-coupled mass spectrometry (LC–MS); conditions: 2 µM
[3] = The drug is tested on Clostridium sporogenes strain: ATCC15579 for biotransformation. The drug concentrations were measured before and after a 12-h incubation by liquid-chromatography-coupled mass spectrometry (LC–MS); conditions: 2 µM
[4] = The drug is tested on Dorea formicigenerans strain: ATCC27755 for biotransformation. The drug concentrations were measured before and after a 12-h incubation by liquid-chromatography-coupled mass spectrometry (LC–MS); conditions: 2 µM
[5] = The drug is tested on Eubacterium rectale strain: ATCC33656 for biotransformation. The drug concentrations were measured before and after a 12-h incubation by liquid-chromatography-coupled mass spectrometry (LC–MS); conditions: agathobacter rectalis, 2 µM
[6] = The drug is tested on Ruminococcus gnavus strain: ATCC29149 for biotransformation. The drug concentrations were measured before and after a 12-h incubation by liquid-chromatography-coupled mass spectrometry (LC–MS); conditions: mediterraneibacter gnavus, 2 µM
[7] = The drug is tested on Ruminococcus lactaris strain: ATCC29176 for biotransformation. The drug concentrations were measured before and after a 12-h incubation by liquid-chromatography-coupled mass spectrometry (LC–MS); conditions: 2 µM
[8] = The drug is tested on Subdoligranulum variabile strain: DSM15176 for biotransformation. The drug concentrations were measured before and after a 12-h incubation by liquid-chromatography-coupled mass spectrometry (LC–MS); conditions: 2 µM
[9] = The drug is tested on Providencia stuartii strain: ATCC25827 for biotransformation. The drug concentrations were measured before and after a 12-h incubation by liquid-chromatography-coupled mass spectrometry (LC–MS); conditions: 2 µM
[10] = bacteroides fragilis, 12 h, 2 µM
Description: The drug is tested on Bacteroides fragilis strain: NCTC 9343 for biotransformation. The drug concentrations were measured before and after a 12-h incubation by liquid-chromatography-coupled mass spectrometry (LC–MS)

[11] = bacteroides fragilis, 12 h, 2 µM; remark: listed apart in the source
Description: The drug is tested on Bacteroides fragilis strain: 3397 (T10) for biotransformation. The drug concentrations were measured before and after a 12-h incubation by liquid-chromatography-coupled mass spectrometry (LC–MS)

[12] = parabacteroides johnsonii, 12 h, 2 µM
Description: The drug is tested on Parabacteroides johnsonii strain: DSM18315 for biotransformation. The drug concentrations were measured before and after a 12-h incubation by liquid-chromatography-coupled mass spectrometry (LC–MS)

[13] = segatella copri, 12 h, 2 µM
Description: The drug is tested on Prevotella copri strain: DSM18205 for biotransformation. The drug concentrations were measured before and after a 12-h incubation by liquid-chromatography-coupled mass spectrometry (LC–MS)

[14] = enterocloster bolteae, 12 h, 2 µM
Description: The drug is tested on Clostridium bolteae strain: ATCCBAA-613 for biotransformation. The drug concentrations were measured before and after a 12-h incubation by liquid-chromatography-coupled mass spectrometry (LC–MS)

[15] = roseburia intestinalis, 12 h, 2 µM
Description: The drug is tested on Roseburia intestinalis strain: L1-82 for biotransformation. The drug concentrations were measured before and after a 12-h incubation by liquid-chromatography-coupled mass spectrometry (LC–MS)

[16] = The drug is tested on Alistipes indistinctus strain: DSM22520 for biotransformation. The drug concentrations were measured before and after a 12-h incubation by liquid-chromatography-coupled mass spectrometry (LC–MS); conditions: 2 µM
[17] = The drug is tested on Bacteroides fragilis strain: HMW615 for biotransformation. The drug concentrations were measured before and after a 12-h incubation by liquid-chromatography-coupled mass spectrometry (LC–MS); conditions: 2 µM
[18] = The drug is tested on Bacteroides vulgatus strain: ATCC8482 for biotransformation. The drug concentrations were measured before and after a 12-h incubation by liquid-chromatography-coupled mass spectrometry (LC–MS); conditions: phocaeicola vulgatus, 2 µM
[19] = The drug is tested on Blautia hansenii strain: DSM20583 for biotransformation. The drug concentrations were measured before and after a 12-h incubation by liquid-chromatography-coupled mass spectrometry (LC–MS); conditions: 2 µM

Row | Bacterial Biotransformation [1] | Bacterial Biotransformation [2] | Bacterial Biotransformation [3] | Bacterial Biotransformation [4] | Bacterial Biotransformation [5] | Bacterial Biotransformation [6] | Bacterial Biotransformation [7] | Bacterial Biotransformation [8] | Bacterial Biotransformation [9] | Bacterial Biotransformation [10] | Bacterial Biotransformation [11] | Bacterial Biotransformation [12] | Bacterial Biotransformation [13] | Bacterial Biotransformation [14] | Bacterial Biotransformation [15] | Bacterial Biotransformation [16] | Bacterial Biotransformation [17] | Bacterial Biotransformation [18] | Bacterial Biotransformation [19] | Compound
1 | Compound NOT metabolized | Compound NOT metabolized | Compound NOT metabolized | Compound NOT metabolized | Compound NOT metabolized | Compound NOT metabolized | Compound NOT metabolized | Compound NOT metabolized | Compound NOT metabolized | Compound NOT metabolized | Compound NOT metabolized | Compound NOT metabolized | Compound NOT metabolized | Compound NOT metabolized | Compound NOT metabolized | – | – | – | – | CCCC(=O)Nc1ccc(OCC(O)CNC(C)C)c(C(C)=O)c1 (configuration not stated) [ACEBUTOLOL]
2 | Compound NOT metabolized | Compound NOT metabolized | Compound NOT metabolized | Compound NOT metabolized | Compound NOT metabolized | Compound NOT metabolized | Compound NOT metabolized | Compound NOT metabolized | Compound NOT metabolized | Compound NOT metabolized | Compound NOT metabolized | – | Compound NOT metabolized | Compound NOT metabolized | Compound NOT metabolized | – | – | Compound NOT metabolized | – | CN(C)CCc1c[nH]c2ccc(CS(=O)(=O)N3CCCC3)cc12 [ALMOTRIPTAN]
3 | Compound NOT metabolized | Compound NOT metabolized | Compound NOT metabolized | Compound NOT metabolized | Compound NOT metabolized | Compound NOT metabolized | Compound NOT metabolized | Compound NOT metabolized | Compound NOT metabolized | Compound NOT metabolized | Compound NOT metabolized | – | Compound NOT metabolized | Compound NOT metabolized | Compound NOT metabolized | Compound NOT metabolized | – | Compound NOT metabolized | Compound NOT metabolized | C=CCc1ccccc1OCC(O)CNC(C)C (configuration not stated) [ALPRENOLOL]
4 | Compound NOT metabolized | Compound NOT metabolized | Compound NOT metabolized | Compound NOT metabolized | Compound NOT metabolized | Compound NOT metabolized | Compound NOT metabolized | Compound NOT metabolized | Compound NOT metabolized | Compound NOT metabolized | Compound NOT metabolized | Compound NOT metabolized | Compound NOT metabolized | Compound NOT metabolized | Compound NOT metabolized | Compound NOT metabolized | Compound NOT metabolized | Compound NOT metabolized | – | CCN1CCCC1CNC(=O)c1cc(S(=O)(=O)CC)c(N)cc1OC (configuration not stated) [AMISULPRIDE]
5 | Compound NOT metabolized | Compound metabolized | – | Compound NOT metabolized | Compound NOT metabolized | Compound NOT metabolized | Compound NOT metabolized | – | – | – | Compound metabolized | Compound metabolized | Compound NOT metabolized | Compound NOT metabolized | – | Compound NOT metabolized | Compound metabolized | Compound metabolized | Compound metabolized | CCCC1O[C@@H]2C[C@H]3[C@@H]4CCC5=CC(=O)C=C[C@]5(C)[C@H]4[C@@H](O)C[C@]3(C)[C@]2(C(=O)CO)O1 (some centres not stated) [BUDESONIDE]
6 | Compound metabolized | Compound NOT metabolized | Compound metabolized | Compound metabolized | Compound NOT metabolized | Compound NOT metabolized | Compound NOT metabolized | Compound NOT metabolized | Compound metabolized | Compound metabolized | Compound metabolized | Compound metabolized | Compound NOT metabolized | Compound metabolized | Compound NOT metabolized | – | – | Compound metabolized | – | c1ccc([C@H]2CN3CCSC3=N2)cc1 [LEVAMISOLE]

Continued, molecule first:

Row | Compound | Bacterial Biotransformation [1] | Bacterial Biotransformation [2] | Bacterial Biotransformation [3] | Bacterial Biotransformation [4] | Bacterial Biotransformation [5] | Bacterial Biotransformation [6] | Bacterial Biotransformation [7] | Bacterial Biotransformation [8] | Bacterial Biotransformation [9] | Bacterial Biotransformation [10] | Bacterial Biotransformation [11] | Bacterial Biotransformation [12] | Bacterial Biotransformation [13] | Bacterial Biotransformation [14] | Bacterial Biotransformation [15] | Bacterial Biotransformation [16] | Bacterial Biotransformation [17] | Bacterial Biotransformation [18] | Bacterial Biotransformation [19]
7 | CCN(CC)CCNC(=O)c1ccc(NC(C)=O)cc1 [ACECAINIDE] | Compound NOT metabolized | – | Compound NOT metabolized | Compound NOT metabolized | Compound NOT metabolized | Compound NOT metabolized | Compound NOT metabolized | Compound NOT metabolized | – | – | Compound NOT metabolized | Compound NOT metabolized | Compound NOT metabolized | Compound NOT metabolized | Compound NOT metabolized | Compound NOT metabolized | Compound NOT metabolized | Compound NOT metabolized | –
8 | CC(C)(C#N)c1cc(Cn2cncn2)cc(C(C)(C)C#N)c1 [ANASTROZOLE] | Compound NOT metabolized | Compound metabolized | Compound metabolized | Compound NOT metabolized | Compound NOT metabolized | Compound NOT metabolized | Compound NOT metabolized | – | Compound NOT metabolized | Compound metabolized | Compound metabolized | Compound metabolized | Compound metabolized | Compound NOT metabolized | Compound NOT metabolized | Compound NOT metabolized | Compound NOT metabolized | Compound metabolized | Compound metabolized
9 | C[N+]12CCC(CC1)C(OC(=O)C(O)(c1ccccc1)c1ccccc1)C2.[Br-] (configuration not stated) [CLIDINIUM BROMIDE] | Compound NOT metabolized | Compound NOT metabolized | Compound NOT metabolized | Compound NOT metabolized | – | Compound NOT metabolized | Compound NOT metabolized | Compound NOT metabolized | Compound NOT metabolized | Compound NOT metabolized | Compound NOT metabolized | Compound NOT metabolized | Compound NOT metabolized | – | Compound NOT metabolized | – | – | – | Compound NOT metabolized
10 | COc1cc(NC(C)CCCN)c2ncccc2c1.O=P(O)(O)O.O=P(O)(O)O (configuration not stated) [PRIMAQUINE PHOSPHATE] | Compound metabolized | Compound NOT metabolized | Compound NOT metabolized | – | Compound NOT metabolized | Compound NOT metabolized | – | Compound NOT metabolized | – | Compound NOT metabolized | Compound metabolized | Compound metabolized | Compound metabolized | Compound metabolized | Compound NOT metabolized | Compound NOT metabolized | Compound NOT metabolized | Compound NOT metabolized | –
